{"source": "PubChem BioAssay AID2060612", "about": "(Molecular Pharmacology Branch, DTP, NCI, 2025);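 also: spheroids exposed to compounds for 7 days before readout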;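 as to viability, T/C: 100% = DMSO vehicle wells with luminescence normalized to vehicle control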", "system": "565232-114-T-J1-PDC complex spheroid viability", "experiment": "Anticancer human tumor 565232-114-T-J1-PDC patient-derived bladder carcinoma cell line growth inhibition [CLK]", "settings": "for IC50: curve of first compound; for viability, T/C: stronger effect = lower value", "text": "A high-throughput screen of multi-cell type tumor spheroids was designed to identify active combinations of […] and targeted small molecules. Complex spheroids include a stromal component modeled by human endothelial cells (HUVEC) and fibroblasts modeled by human mesenchymal stem cells (MSCs). The concentration ranges selected for each drug and investigational agent were based upon clinically achievable concentrations if the clinical Cmax of the agent was known.\nCompounds. The drugs and investigational agents: cirtuvivint (SM08502; NSC835563), CC-671 (NSC850746), vemurafenib (NSC761431), tapotoclax (NSC804041), sotorasib (NSC818433), adagrasib (NSC831453), MRTX-1133 (NSC836407), BAY2416964 (NSC825713), copanlisib (NSC816437), inavolisib (NSC800729), abemaciclib (NSC768073), osimertinib (NSC779217), entinostat (NSC756642), eltanexor (KPT-8602, NSC794443), venetoclax (NSC766270), ceralasertib (NSC777638), bortezomib (NSC756655), olaparib (NSC753686), talazoparib (NSC767125), alisertib (NSC759677), peposertib (NSC802822), gemcitabine (NSC613327), 5-fluorouracil (NSC19893), SN-38 (NSC673596), oxaliplatin (NSC266046), paclitaxel (NSC125973), and doxorubicin (NSC123127), were obtained from the National Cancer Institute (NCI) Developmental Therapeutics Program Chemical Repository. The FDA-approved anticancer drug set is available from the Developmental Therapeutics Program at https://dtp.cancer.gov/organization/dscb/obtaining/available plates.htm. […] The stock solutions were prepared in dimethyl sulfoxide (DMSO, Sigma-Aldrich, St. Louis, MO, cat. D2650), except for the platinum complexes which were prepared in saline (Quality Biological, Gaithersburg, MD, cat. 114-055-101), at 800-fold the tested concentration and stored at -70 degrees C prior to their use. All drugs and investigational agents were tested over a range starting from a high concentration at or near the clinical Cmax and decreasing in half-log increments. If the clinical Cmax for an agent had not been determined, the highest concentration tested was 10 microM.\nCell Culture. All cells were maintained in an incubator at 37 degrees C and 5% CO2 with 95% humidity. The PDC lines were cultured according to standard operating procedures established by the NCI PDMR. Briefly, all PDCs were thawed and cultured in Matrigel-coated flasks prepared with a working solution of 1X Ham's F-12 nutrient mix, without supplementation (Invitrogen, Waltham, MA, cat. 11765054), 100 U/mL penicillin-streptomycin (Invitrogen, cat. 15140122), and 2.5% Matrigel (Corning Inc., Corning, NY, cat. 354248) for the first three passages. The 947758-054-R-J2-PDC line was cultured in 6B/Colon 1A media, which includes advanced DMEM/F-12 (Thermo Fisher Scientific, cat. 12634028), 10 mM HEPES (Thermo Fisher Scientific, cat. 15630080), 1X GlutaMAX supplement (Thermo Fisher Scientific, cat. 35050061), 0.1 mg/mL primocin (InvivoGen, cat. ant-pm-2), 10% defined fetal bovine serum, heat inactivated (HyClone Laboratories Inc., cat. SH30070.03HI), 1.25 mM N-Acetyl-L-cysteine (Sigma-Aldrich, cat. A9165), 10 mM nicotinamide (Sigma-Aldrich, cat. N0636), 1X B-27 supplement (Thermo Fisher Scientific, cat. 17504044), 1X N-2 supplement (Thermo Fisher Scientific, cat. 17502048), and 10 microM Y-27632 dihydrochloride (Tocris Bioscience, cat. 1254). The 876862-298-R-J1-PDC was cultured in 6E media, which includes all 6B/Colon 1A media components plus 50% L-WRN conditioned media (ATCC, cat. CRL-3276), 50 ng/mL recombinant human EGF recombinant protein (hEGF; Thermo Fisher Scientific, cat. PHG0311), 10 ng/mL recombinant human fibroblast growth factor 10 (hGFG-10; PeproTech, cat. 100-26), 1 ng/mL recombinant human fibroblast growth factor 2 (hFGF-2; PeproTech, cat. 100-18B), and 1 µM prostaglandin E2 (PGE2; Tocris, cat. 2296). The 227483-062-R1-J1-PDC line was cultured in Panc media, containing all 6E components except hFGF-2, with the addition of 500 nM SB-431542 (Selleckchem, cat. S1067) and 10 nM gastrin (Tocris, cat. 3006). […]", "data": [{"smiles": "CCN1CCN(Cc2ccc(Nc3ncc(F)c(-c4cc(F)c5nc(C)n(C(C)C)c5c4)n3)nc2)CC1", "note": "+ CN1CCN(c2cc(C(=O)Nc3cc4cc(-c5cnn(C)c5)ccc4cn3)ccn2)CC1", "values": [{"measurement": "IC50", "setting": "second compound 0.0316 µM", "result": "> 1000", "unit": "nM"}, {"measurement": "IC50", "setting": "second compound 0.1 µM", "result": "> 1000", "unit": "nM"}, {"measurement": "IC50", "setting": "second compound 0.316 µM", "result": "< 3.16", "unit": "nM"}, {"measurement": "IC50", "setting": "second compound 1 µM", "result": "< 3.16", "unit": "nM"}, {"measurement": "IC50", "setting": "second compound 3.16 µM", "result": "< 3.16", "unit": "nM"}, {"measurement": "IC50", "setting": "second compound 10 µM", "result": "< 3.16", "unit": "nM"}, {"measurement": "viability, T/C", "setting": "second compound 0.0316 µM, first compound 0.00316 µM", "result": 116, "unit": "%"}, {"measurement": "viability, T/C", "setting": "second compound 0.0316 µM, first compound 0.01 µM", "result": 82.1, "unit": "%"}, {"measurement": "viability, T/C", "setting": "second compound 0.0316 µM, first compound 0.0316 µM", "result": 98.7, "unit": "%"}, {"measurement": "viability, T/C", "setting": "second compound 0.0316 µM, first compound 0.1 µM", "result": 92.8, "unit": "%"}, {"measurement": "viability, T/C", "setting": "second compound 0.0316 µM, first compound 0.316 µM", "result": 113, "unit": "%"}, {"measurement": "viability, T/C", "setting": "second compound 0.0316 µM, first compound 1 µM", "result": 123, "unit": "%"}, {"measurement": "viability, T/C", "setting": "second compound 0.1 µM, first compound 0.00316 µM", "result": 88.1, "unit": "%"}, {"measurement": "viability, T/C", "setting": "second compound 0.1 µM, first compound 0.01 µM", "result": 90.2, "unit": "%"}, {"measurement": "viability, T/C", "setting": "second compound 0.1 µM, first compound 0.0316 µM", "result": 89, "unit": "%"}, {"measurement": "viability, T/C", "setting": "second compound 0.1 µM, first compound 0.1 µM", "result": 103, "unit": "%"}, {"measurement": "viability, T/C", "setting": "second compound 0.1 µM, first compound 0.316 µM", "result": 116, "unit": "%"}, {"measurement": "viability, T/C", "setting": "second compound 0.1 µM, first compound 1 µM", "result": 113, "unit": "%"}, {"measurement": "viability, T/C", "setting": "second compound 0.316 µM, first compound 0.00316 µM", "result": 15.5, "unit": "%"}, {"measurement": "viability, T/C", "setting": "second compound 0.316 µM, first compound 0.01 µM", "result": 24.7, "unit": "%"}, {"measurement": "viability, T/C", "setting": "second compound 0.316 µM, first compound 0.0316 µM", "result": 23.2, "unit": "%"}, {"measurement": "viability, T/C", "setting": "second compound 0.316 µM, first compound 0.1 µM", "result": 29.1, "unit": "%"}, {"measurement": "viability, T/C", "setting": "second compound 0.316 µM, first compound 0.316 µM", "result": 42.4, "unit": "%"}, {"measurement": "viability, T/C", "setting": "second compound 0.316 µM, first compound 1 µM", "result": 61.1, "unit": "%"}, {"measurement": "viability, T/C", "setting": "second compound 1 µM, first compound 0.00316 µM", "result": 0.26, "unit": "%"}, {"measurement": "viability, T/C", "setting": "second compound 1 µM, first compound 0.01 µM", "result": 0.27, "unit": "%"}, {"measurement": "viability, T/C", "setting": "second compound 1 µM, first compound 0.0316 µM", "result": 0.3, "unit": "%"}, {"measurement": "viability, T/C", "setting": "second compound 1 µM, first compound 0.1 µM", "result": 0.29, "unit": "%"}, {"measurement": "viability, T/C", "setting": "second compound 1 µM, first compound 0.316 µM", "result": 1.31, "unit": "%"}, {"measurement": "viability, T/C", "setting": "second compound 1 µM, first compound 1 µM", "result": 2.37, "unit": "%"}, {"measurement": "viability, T/C", "setting": "second compound 3.16 µM, first compound 0.00316 µM", "result": 0.2, "unit": "%"}, {"measurement": "viability, T/C", "setting": "second compound 3.16 µM, first compound 0.01 µM", "result": 0.22, "unit": "%"}, {"measurement": "viability, T/C", "setting": "second compound 3.16 µM, first compound 0.0316 µM", "result": 0.96, "unit": "%"}, {"measurement": "viability, T/C", "setting": "second compound 3.16 µM, first compound 0.1 µM", "result": 0.16, "unit": "%"}, {"measurement": "viability, T/C", "setting": "second compound 3.16 µM, first compound 0.316 µM", "result": 0.25, "unit": "%"}, {"measurement": "viability, T/C", "setting": "second compound 3.16 µM, first compound 1 µM", "result": 0.35, "unit": "%"}, {"measurement": "viability, T/C", "setting": "second compound 10 µM, first compound 0.00316 µM", "result": 0.18, "unit": "%"}, {"measurement": "viability, T/C", "setting": "second compound 10 µM, first compound 0.01 µM", "result": 0.2, "unit": "%"}, {"measurement": "viability, T/C", "setting": "second compound 10 µM, first compound 0.0316 µM", "result": 0.5, "unit": "%"}, {"measurement": "viability, T/C", "setting": "second compound 10 µM, first compound 0.1 µM", "result": 0.16, "unit": "%"}, {"measurement": "viability, T/C", "setting": "second compound 10 µM, first compound 0.316 µM", "result": 0.21, "unit": "%"}, {"measurement": "viability, T/C", "setting": "second compound 10 µM, first compound 1 µM", "result": 1.34, "unit": "%"}]}]}
